{
  "source": "patent US7288660B2",
  "about": "“Process for preparing ondansetron hydrochloride dihydrate having a defined particle size” (Taro Pharmaceutical Industries Limited, priority 2004, dated 2007)",
  "key": {"[1]": {"assay": "Particle size determination by laser diffraction (MALVERN Mastersizer 2000)", "format": "physicochemical", "settings": "for <150 μm (fraction of particles by volume smaller than specified diameter) / Mean particle size / <63 μm (fraction of particles by volume smaller than specified diameter): hydrochloride dihydrate", "description": "Particle Size Determination by Laser Diffraction\nThe particle size of the obtained ondansetron hydrochloride dihydrate particles was determined as set forth above (See Methodology and Protocols). The mean particle size and particle size distribution of the particles (fraction of particles by volume smaller than specified diameter) are presented in the following table."}, "[2]": {"settings": "particles from the '578 patent process (cooling isopropanol/water solution); cited from earlier work"}, "[3]": {"settings": "Drying: 40° C., eight (8) hours, 25° C., two (2) days"}, "[4]": {"settings": "Drying: Ambient conditions, six (6) hours"}, "[5]": {"settings": "Drying: None (i.e., wet particles after filtration)"}},
  "note": "Structures can show the parent of a compound that is named as a salt.",
  "data": [
    {"smiles": "Cc1nccn1CC1CCc2c(c3ccccc3n2C)C1=O", "note": "(stereo not shown) [Example 6, ondansetron hydrochloride dihydrate]", "values": [
      {"measurement": "<60 μm", "setting": "[1]; [3]", "value": 15, "unit": "%"},
      {"measurement": "<350 μm", "setting": "[1]; [3]", "value": 100, "unit": "%"},
      {"measurement": "<60 μm", "setting": "[1]; Drying: 40° C., four (4) hours", "value": 28, "unit": "%"},
      {"measurement": "<280 μm", "setting": "[1]; Drying: 40° C., four (4) hours", "value": 100, "unit": "%"},
      {"measurement": "<60 μm", "setting": "[1]; Drying: 40° C., two (2) hours", "value": 35, "unit": "%"},
      {"measurement": "<290 μm", "setting": "[1]; Drying: 40° C., two (2) hours", "value": 100, "unit": "%"},
      {"measurement": "<60 μm", "setting": "[1]; [4]", "value": 28, "unit": "%"},
      {"measurement": "<280 μm", "setting": "[1]; [4]", "value": 100, "unit": "%"},
      {"measurement": "<60 μm", "setting": "[1]; [5]", "value": 31, "unit": "%"},
      {"measurement": "<280 μm", "setting": "[1]; [5]", "value": 100, "unit": "%"}
    ]},
    {"smiles": "Cc1nccn1CC1CCc2c(c3ccccc3n2C)C1=O", "note": "(stereo not shown) [ondansetron hydrochloride dihydrate]", "values": [
      {"measurement": "Fraction of particles smaller than 250 μm", "setting": "[2]", "value": "less than 60%"}
    ]},
    {"smiles": "Cc1nccn1CC1CCc2c(c3ccccc3n2C)C1=O", "note": "(single isomer, unassigned) [Example 1, ondansetron hydrochloride dihydrate]", "values": [
      {"measurement": "<60 μm (fraction of particles by volume smaller than specified diameter)", "setting": "[1]; dried particles", "value": 19, "unit": "%"},
      {"measurement": "<250 μm (fraction of particles by volume smaller than specified diameter)", "setting": "[1]; dried particles", "value": 100, "unit": "%"},
      {"measurement": "<150 μm (fraction of particles by volume smaller than specified diameter)", "setting": "[1]; dried particles", "value": 90, "unit": "%"},
      {"measurement": "Mean particle size", "setting": "[1]; dried particles", "value": 96, "unit": "μm"}
    ]},
    {"smiles": "Cc1nccn1CC1CCc2c(c3ccccc3n2C)C1=O", "note": "(single isomer, unassigned) [Example 3, ondansetron hydrochloride dihydrate]", "values": [
      {"measurement": "<250 μm (fraction of particles by volume smaller than specified diameter)", "setting": "[1]; dried particles", "value": 100, "unit": "%"},
      {"measurement": "<63 μm (fraction of particles by volume smaller than specified diameter)", "setting": "[1]; dried particles", "value": 34, "unit": "%"},
      {"measurement": "<150 μm (fraction of particles by volume smaller than specified diameter)", "setting": "[1]; dried particles", "value": 85, "unit": "%"},
      {"measurement": "Mean particle size", "setting": "[1]; dried particles", "value": 81, "unit": "μm"}
    ]},
    {"smiles": "Cc1nccn1CC1CCc2c(c3ccccc3n2C)C1=O", "note": "(single isomer, unassigned) [Example 5, ondansetron hydrochloride dihydrate]", "values": [
      {"measurement": "<250 μm (fraction of particles by volume smaller than specified diameter)", "setting": "[1]; dried particles", "value": 100, "unit": "%"},
      {"measurement": "<63 μm (fraction of particles by volume smaller than specified diameter)", "setting": "[1]; dried particles", "value": 26, "unit": "%"},
      {"measurement": "<150 μm (fraction of particles by volume smaller than specified diameter)", "setting": "[1]; dried particles", "value": 85, "unit": "%"},
      {"measurement": "Mean particle size", "setting": "[1]; dried particles", "value": 89, "unit": "μm"}
    ]},
    {"smiles": "Cc1nccn1CC1CCc2c(c3ccccc3n2C)C1=O", "note": "(single isomer, unassigned) [Example 2, ondansetron hydrochloride dihydrate]", "values": [
      {"measurement": "<250 μm (fraction of particles by volume smaller than specified diameter)", "setting": "[1]; dried particles", "value": 100, "unit": "%"},
      {"measurement": "<63 μm (fraction of particles by volume smaller than specified diameter)", "setting": "[1]; dried particles", "value": 31, "unit": "%"},
      {"measurement": "<150 μm (fraction of particles by volume smaller than specified diameter)", "setting": "[1]; dried particles", "value": 90, "unit": "%"},
      {"measurement": "Mean particle size", "setting": "[1]; dried particles", "value": 81, "unit": "μm"}
    ]},
    {"smiles": "Cc1nccn1CC1CCc2c(c3ccccc3n2C)C1=O", "note": "(single isomer, unassigned) [Example 4, ondansetron hydrochloride dihydrate]", "values": [
      {"measurement": "<250 μm (fraction of particles by volume smaller than specified diameter)", "setting": "[1]; dried particles", "value": 100, "unit": "%"},
      {"measurement": "<63 μm (fraction of particles by volume smaller than specified diameter)", "setting": "[1]; dried particles", "value": 12, "unit": "%"},
      {"measurement": "<150 μm (fraction of particles by volume smaller than specified diameter)", "setting": "[1]; dried particles", "value": 85, "unit": "%"},
      {"measurement": "Mean particle size", "setting": "[1]; dried particles", "value": 81, "unit": "μm"}
    ]}
  ]
}
